{"source": "patent US7018993B2", "about": "“Antiandrogenic agent” (Chugai Seiyaku Kabushiki Kaisha, priority 2000, dated 2006)", "key": {"[1]": {"target": "T1, human androgen receptor (Homo sapiens, UniProt P10275)", "T1 construct": "expressed in transfected cells; host or cells: HeLa cells", "T1 sequence (P10275 1-920)": "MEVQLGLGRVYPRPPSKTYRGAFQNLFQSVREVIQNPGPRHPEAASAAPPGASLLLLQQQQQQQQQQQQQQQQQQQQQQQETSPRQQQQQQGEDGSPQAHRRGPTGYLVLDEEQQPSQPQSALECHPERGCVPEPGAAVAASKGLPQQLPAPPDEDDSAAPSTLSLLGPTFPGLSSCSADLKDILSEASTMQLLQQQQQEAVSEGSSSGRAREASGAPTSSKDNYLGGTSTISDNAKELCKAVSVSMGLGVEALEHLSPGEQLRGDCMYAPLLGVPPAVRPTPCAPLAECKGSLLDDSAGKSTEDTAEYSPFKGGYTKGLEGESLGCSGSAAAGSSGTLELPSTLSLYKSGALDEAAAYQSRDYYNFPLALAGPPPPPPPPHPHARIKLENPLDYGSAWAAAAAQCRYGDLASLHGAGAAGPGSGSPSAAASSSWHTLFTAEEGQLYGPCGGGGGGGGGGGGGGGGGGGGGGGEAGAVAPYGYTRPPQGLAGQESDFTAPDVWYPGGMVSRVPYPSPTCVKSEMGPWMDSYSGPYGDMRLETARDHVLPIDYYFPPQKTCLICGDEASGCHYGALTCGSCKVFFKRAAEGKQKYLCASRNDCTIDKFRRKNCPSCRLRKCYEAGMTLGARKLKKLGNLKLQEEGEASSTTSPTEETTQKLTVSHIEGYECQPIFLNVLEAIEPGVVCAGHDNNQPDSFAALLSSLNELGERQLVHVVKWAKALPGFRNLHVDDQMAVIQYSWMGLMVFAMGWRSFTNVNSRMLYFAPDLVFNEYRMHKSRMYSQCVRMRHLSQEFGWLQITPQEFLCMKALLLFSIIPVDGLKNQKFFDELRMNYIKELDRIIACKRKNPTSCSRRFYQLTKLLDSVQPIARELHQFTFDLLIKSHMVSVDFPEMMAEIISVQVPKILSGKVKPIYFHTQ", "assay": "Androgen receptor reporter gene assay for antagonistic effects (inhibition of DHT-induced transcriptional activity, HeLa cells)", "type": "cell-based", "method": "Twenty-four hours before transfection, 1.0×10^5 HeLa cells are cultured in a 12-well microplate containing phenol red-free DMEM/5% DCC-FBS. […] To effect this assay, reference may be made to J. Biol. Chem., vol. 270, p.\n(§1) Twenty-four hours before transfection, 1.0×10^5 HeLa cells are cultured in a 12-well microplate containing phenol red-free DMEM/5% DCC-FBS."}, "[2]": {"target": "T1, human androgen receptor", "assay": "Androgen receptor reporter gene assay for agonistic effects (MMTV-Luc, HeLa cells)", "type": "cell-based", "conditions": "10 μmol/L", "method": "Twenty-four hours before transfection, 1.0×10^5 HeLa cells (purchased from Dainippon Pharmaceutical Co., Ltd.) are cultured in a 12-well microplate containing phenol red-free Dulbecco's Modified Eagle Medium (phenol red-free DMEM) supplemented with charcoal-treated FBS (DCC-FBS; 5%). […] To effect this assay, reference may be made to J. Biol. Chem., vol. 270, p.\nas §1"}, "[3]": {"target": "androgen receptor (Homo sapiens, UniProt P10275)", "conditions": "10 μmol/L; cited from earlier work"}, "[4]": {"conditions": "prostate cancer patients undergoing treatment with flutamide; cited from earlier work"}, "[5]": {"tested_on": "prostate weight", "conditions": "castrated rats, continuous administration for two weeks; cited from earlier work"}}, "data": [{"smiles": "CN(C)C(=O)CCCOc1cc(O)cc(CCC[C@@H]2C[C@H]3CC(=O)CC[C@]3(C)[C@H]3CC[C@]4(C)[C@@H](O)CC[C@H]4[C@H]23)c1", "note": "[Compound from Example 3, 17β-Hydroxy-7α-(3-(3-hydroxy-5-(3-(N,N-dimethylaminocarbonyl)propoxy)phenyl)propyl)-5α-androstan-3-one]", "values": [{"measurement": "IC50", "setting": "[1]", "result": 392, "unit": "nM"}]}, {"smiles": "CC(C)(O)C(=O)Nc1ccc([N+](=O)[O-])c(C(F)(F)F)c1", "note": "[Hydroxyflutamide, hydroxyflutamide]", "values": [{"measurement": "agonistic effects", "setting": "[2]", "result": "observed to have agonistic effects"}, {"measurement": "Luciferase activity (Relative activity)", "setting": "[1]; 1.0 μmol/L compound with 0.1 nmol/L DHT, 48 h, activity given by 0.1 nmol/L DHT set to 100", "result": "29.0 (<50.0)"}, {"measurement": "transcriptional activity of androgen receptor", "setting": "[3]", "result": "enhance the transcriptional activity"}, {"measurement": "blood hydroxyflutamide levels", "setting": "[4]", "result": "several"}]}, {"smiles": "CC(=O)O[C@]1(C(C)=O)CC[C@H]2[C@@H]3C=C(Cl)C4=CC(=O)CC[C@]4(C)[C@H]3CC[C@@]21C", "note": "[chlormadinone acetate]", "values": [{"measurement": "prostate weight", "setting": "[5]", "result": "increase in their prostate weight"}]}, {"smiles": "CC(=O)O[C@]1(C(C)=O)CC[C@H]2[C@@H]3C=C(Cl)C4=CC(=O)[C@@H]5C[C@@H]5[C@]4(C)[C@H]3CC[C@@]21C", "note": "[cyproterone acetate]", "values": [{"measurement": "prostate weight", "setting": "[5]", "result": "increase in their prostate weight"}]}]}
